Reference: patent publication US20090155209A1, “NOVEL MACROCYCLIC INHIBITORS OF HEPATITIS C VIRUS REPLICATION” (priority 2007, published 2009)
Like-named read-outs stand apart in the source and are kept apart here.

What was measured:
[1] = Simulated steady-state plasma and liver profiles: predicted AUC0-24, Cavg, % Time>EC90, Ctrough,liver/EC90; parameters: species or system human; details: 8 or 12 hour dose interval
From the text: Fitted parameters were used to compute predicted steady-state AUC0-24 and integrated average steady-state concentrations (Cavg) in plasma and in liver. Three hypothetical liver to plasma ratios (LPR) were considered given the variability seen in various animal species: 8 to 1, 30 to 1, and 100 to 1. The LPR seen in rats was approximately 8:1, LPR in dogs was approximately 25-40:1 and LPR in monkeys was approximately 80-125:1.
Using ADAPT 5, simulated plasma profiles were generated using individual subject fitted parameters and two different dosing regimens, 800 mg Q12H and 500 mg Q8H, dosed to steady-state.
By simulating plasma concentration profiles at steady-state, it is possible to predict ITMN-191 concentrations in liver and then index these to viral sensitivity. Summary statistics for the percentage of a dosing interval for which predicted liver concentrations remain above the EC90 (% Time>EC90) and the ratio of predicted trough concentration in the liver to the EC90 (Ctrough, liver/EC90) are provided in Table 12.

[2] = Single ascending dose study, fasted and fed: safety and non-compartmental plasma PK; format: in vivo, healthy volunteers (human); details: for AUC0-inf / Cmax / half-life / Tmax: human, plasma, oral; for Tmax: read-out: Tmax
Procedure: A single ascending dose (SAD) study of the compound 100 was conducted in healthy volunteers. The compound 100 was administered as monotherapy both with and without food. The safety and pharmacokinetic profile of the single dose of the compound 100 was assessed.
Interim, blinded data were used for Pharmacokinetic (PK) study relating to food effects. With the exception of the 400 mg cohort, eight subjects were studied at each dose (single doses of 100, 200, or 800 mg of the sodium salt of the compound 100, which may be referred to herein as ITMN-191, administered in the fasting state). In the 400 mg cohort, ten subjects received single 400 mg doses of ITMN-191 under both fasted and fed conditions with a 5-day washout period between dosing. In the 100 mg cohort, subjects were sampled within 1 hour before dosing and at 0.5, 1, 1.5, 2, 2.5, 3, 4, 6, 8, 12, 18, 24, 32 and 48 hours after dosing. For subsequent cohorts, subjects were sampled within 1 hour before dosing and at 0.25, 0.5, 1, 1.5, 2, 2.5, 3, 4, 6, 8, 12, 18, 24, and 32 hours after dosing. Nominal (not actual) sampling times were used for the analysis. PK samples were analyzed using liquid chromatography-tandem mass spectrometry (LC/MS/MS with API 4000 mass spectrometer) following solid-phase extraction. The upper and lower limits of quantitation (ULOQ and LLOQ) are 100 and 0.01 ng/mL, respectively.
Pharmacokinetic parameter estimates were calculated using non-compartmental methods (implemented using Microsoft Excel®). Half-lives were determined by visual inspection of the log concentration-time plots to choose the terminal phase (minimum of three detectable observations). Using linear regression of the chosen terminal phase observations, elimination rate constants were calculated as the negative slope of the regression line and half-life as the natural log of 2 divided by the elimination rate constant.
Ten subjects received single 1600 mg doses of ITMN-191 under both fasted and fed conditions with a 5-day washout period between dosing. For each condition, subjects were sampled within 1 hour before dosing and at 0.25, 0.5, 1, 1.5, 2, 2.5, 3, 4, 6, 8, 12, 18, 24, and 32 hours after dosing. Pharmacokinetic parameter estimates were calculated using non-compartmental methods. Half-life (t1/2) was determined by visual inspection of the log concentration-time plots to choose the terminal phase (minimum of three detectable observations). Using linear regression of the chosen terminal phase observations, elimination rate constants were calculated as the negative slope and half-life as the natural log of 2 divided by the elimination rate constant.

Structure (SMILES): CC(C)(C)OC(=O)N[C@H]1CCCCC/C=C\[C@@H]2C[C@@]2(C(=O)NS(=O)(=O)C2CC2)NC(=O)[C@@H]2C[C@@H](OC(=O)N3Cc4cccc(F)c4C3)CN2C1=O [ITMN-191]
- accumulation associated with multiple doses [1]: negligible
- fold increase of median AUC0-inf and Cmax ([2]; 1600 mg fasted versus 800 mg cohort): 3-4 fold
- dose linearity of pharmacokinetics based on AUC0-inf ([2]; dose range of 100-800 mg): linear
- AUC0-inf ([2]; 100 mg, median, single 100 mg dose, fasting state, N=8, read-out: AUC0-inf): 20.4 ng·h/mL
- Cmax ([2]; 100 mg, median, single 100 mg dose, fasting state, N=8, read-out: Cmax): 14.7 ng/mL
- half-life ([2]; 100 mg, median, single 100 mg dose, fasting state, N=8, read-out: T1/2 (converted)): 1.78 h
- Tmax ([2]; 100 mg, median, single 100 mg dose, fasting state, N=8): 0.75 h
- AUC0-inf ([2]; 200 mg, median, single 200 mg dose, fasting state, N=8, read-out: AUC0-inf): 36.8 ng·h/mL
- Cmax ([2]; 200 mg, median, single 200 mg dose, fasting state, N=8, read-out: Cmax): 30.2 ng/mL
- half-life ([2]; 200 mg, median, single 200 mg dose, fasting state, N=8, read-out: T1/2 (converted)): 1.49 h
- Tmax ([2]; 200 mg, median, single 200 mg dose, fasting state, N=8): 0.75 h
- AUC0-inf ([2]; 400 mg, median, single 400 mg dose (Fasted), N=10, read-out: AUC0-inf): 81 ng·h/mL
- Cmax ([2]; 400 mg, median, single 400 mg dose (Fasted), N=10, read-out: Cmax): 63.8 ng/mL
- half-life ([2]; 400 mg, median, single 400 mg dose (Fasted), N=10, read-out: T1/2 (converted)): 1.53 h
- Tmax ([2]; 400 mg, median, single 400 mg dose (Fasted), N=10): 1 h
- AUC0-inf ([2]; 400 mg, median, single 400 mg dose (Fed), N=10, read-out: AUC0-inf): 113 ng·h/mL
- Cmax ([2]; 400 mg, median, single 400 mg dose (Fed), N=10, read-out: Cmax): 56.6 ng/mL
- half-life ([2]; 400 mg, median, single 400 mg dose (Fed), N=10, read-out: T1/2 (converted)): 1.74 h
- Tmax ([2]; 400 mg, median, single 400 mg dose (Fed), N=10): 2.5 h
- AUC0-inf ([2]; 800 mg, 800 mg cohort, fasting, single dose, read-out: median AUC0-inf): 194 ng·h/mL
- Cmax ([2]; 800 mg, 800 mg cohort, fasting, single dose, read-out: median Cmax): 216 ng/mL
- AUC0-inf ([2]; 800 mg, median, single 800 mg dose, fasting state, N=8, read-out: AUC0-inf): 194 ng·h/mL
- Cmax ([2]; 800 mg, median, single 800 mg dose, fasting state, N=8, read-out: Cmax): 216 ng/mL
- half-life ([2]; 800 mg, median, single 800 mg dose, fasting state, N=8, read-out: T1/2 (converted)): 1.91 h
- Tmax ([2]; 800 mg, median, single 800 mg dose, fasting state, N=8): 0.5 h
- AUC0-inf ([2]; 1600 mg, 1600 mg fasted cohort, single dose, read-out: median AUC0-inf): 737 ng·h/mL
- Cmax ([2]; 1600 mg, 1600 mg fasted cohort, single dose, read-out: median Cmax): 685 ng/mL
- AUC0-inf ([2]; 1600 mg, Geometric Mean of 10 subjects, single 1600 mg dose, Fasted, read-out: AUC0-inf): 667 ng·h/mL
- Cmax ([2]; 1600 mg, Geometric Mean of 10 subjects, single 1600 mg dose, Fasted, read-out: Cmax): 538 ng/mL
- half-life ([2]; 1600 mg, Geometric Mean of 10 subjects, single 1600 mg dose, Fasted, read-out: t½ (converted)): 2.38 h
- AUC0-inf ([2]; 1600 mg, Geometric Mean of 10 subjects, single 1600 mg dose, Fed, read-out: AUC0-inf): 1010 ng·h/mL
- Cmax ([2]; 1600 mg, Geometric Mean of 10 subjects, single 1600 mg dose, Fed, read-out: Cmax): 422 ng/mL
- half-life ([2]; 1600 mg, Geometric Mean of 10 subjects, single 1600 mg dose, Fed, read-out: t½ (converted)): 2.5 h
- AUC0-inf ([2]; 1600 mg, Harmonic Mean of 10 subjects, single 1600 mg dose, Fasted, read-out: AUC0-inf): 639 ng·h/mL
- Cmax ([2]; 1600 mg, Harmonic Mean of 10 subjects, single 1600 mg dose, Fasted, read-out: Cmax): 453 ng/mL
